Among the test systems are HT-29; 786-0; LOX IMVI; OVCAR-3; SF-268; RPMI-8226; A498; HCT-116; IGROV-1; NCI-H23; SNB-78; XF498; SF-295; SN12C; SK-MEL-28; NCI-H522; UACC-62.
Test in all cases: inhibition of tumour cell growth, NCI panel, 48 h

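Test compounds were applied to cells in 96-well plates for 48 hours at 5 doses. At the GI50, growth is halved.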 The source made the active and inactive calls. Cut-off read from the data, not from the text of the source: active = GI50 up to about 1.1 µM and inactive = higher.

Consider `N#Cc1c2c(c(Cl)n3c1nc1ccccc13)CCCC2`, for which the GI50 is 1.11 µM (active) with HT-29; 1.77 µM (inactive) in the experiment on 786-0; 1.9 µM (inactive) in the experiment on LOX IMVI; 6.5 µM (inactive) in the experiment with OVCAR-3; 2.58 µM (inactive) in the experiment with SF-268; 1.7 µM (inactive) with RPMI-8226. Also, the GI50 in the experiment with A498 is 11.4 µM (inactive); in the experiment on HCT-116, 2.75 µM (inactive); in the experiment with IGROV-1 it was 2.69 µM (inactive); in the experiment with NCI-H23 it was 4.54 µM (inactive); in the experiment on SNB-78 it was 3.89 µM (inactive); with XF498, 2.14 µM (inactive). The GI50 with SF-295 is 4.83 µM (inactive); in the experiment with SN12C it was 2.09 µM (inactive); with SK-MEL-28 it was 1.99 µM (inactive).

For `CCc1cccc(=O)c([O-])c1.CCc1cccc(=O)c([O-])c1.[Bi+3].[Cl-]`, the GI50 was 4.31 µM (inactive) with HT-29; 1.79 µM (inactive) in the experiment on NCI-H522; 9.98 µM (inactive) in the experiment with UACC-62; 9.1 µM (inactive) with 786-0; 7.53 µM (inactive) in the experiment with LOX IMVI; 5.92 µM (inactive) in the experiment on OVCAR-3. Moreover, the GI50 was 5.21 µM (inactive) in the experiment on SF-268; 15 µM (inactive) in the experiment with A498; 7.45 µM (inactive) in the experiment on HCT-116; 6.78 µM (inactive) with IGROV-1; 13.5 µM (inactive) in the experiment on NCI-H23; 7.19 µM (inactive) in the experiment on SNB-78. Besides, the GI50 in the experiment on XF498 was 2.38 µM (inactive); in the experiment on SF-295, 6.31 µM (inactive); with SN12C, 10.2 µM (inactive); in the experiment with SK-MEL-28, 5.14 µM (inactive).

Take `NC1=NC(=O)/C(=C/c2ccccc2[N+](=O)[O-])C(N)=N1`: the GI50 in the experiment with HT-29, in the experiment with NCI-H522, with UACC-62, in the experiment with 786-0, in the experiment on LOX IMVI and in the experiment on OVCAR-3 was > 100 µM (inactive) each time. Also, the GI50 with RPMI-8226, in the experiment on HCT-116, in the experiment on IGROV-1, in the experiment with NCI-H23, in the experiment on SNB-78 and in the experiment with XF498 was > 100 µM (inactive) in each case. Besides, the GI50 in the experiment on SF-295, in the experiment with SN12C and with SK-MEL-28 was > 100 µM (inactive) each time.

Consider `C=CCN(CC=C)CC(C(C)=O)C(c1ccccc1)c1c(O)c2ccccc2oc1=O` (stereo not drawn), for which the GI50 is > 100 µM (inactive) in the experiment on HT-29; 82.4 µM (inactive) in the experiment on NCI-H522; > 100 µM (inactive) with UACC-62; > 100 µM (inactive) in the experiment with 786-0; > 100 µM (inactive) with LOX IMVI; > 100 µM (inactive) with SF-268. Moreover, the GI50 in the experiment with RPMI-8226, in the experiment with A498, in the experiment on HCT-116, with IGROV-1, with NCI-H23 and with SNB-78 was > 100 µM (inactive) each time. Further, the GI50 in the experiment with XF498 is > 100 µM (inactive); with SF-295, 30.5 µM (inactive); with SN12C, > 100 µM (inactive); in the experiment on SK-MEL-28 it was > 100 µM (inactive).

Consider `CCOc1ccccc1NC(=O)CC1SC(Nc2ccc([N+](=O)[O-])cc2)=NC1=O` (stereo not drawn), for which the GI50 is 21.7 µM (inactive) in the experiment on HT-29; 17.2 µM (inactive) in the experiment on UACC-62; 16.7 µM (inactive) with 786-0; 18.5 µM (inactive) with LOX IMVI; 14.5 µM (inactive) in the experiment with OVCAR-3; 29.9 µM (inactive) in the experiment with SF-268. Also, the GI50 in the experiment with RPMI-8226 was 6.95 µM (inactive); with HCT-116, 15.3 µM (inactive); in the experiment with IGROV-1 it was 23.2 µM (inactive); in the experiment on NCI-H23, 16.6 µM (inactive); in the experiment with SNB-78, 28.8 µM (inactive); in the experiment on XF498, 15.8 µM (inactive). In addition, the values for the GI50 in the experiment with SF-295, with SN12C and in the experiment on SK-MEL-28 were 18 µM (inactive), 20.4 µM (inactive) and 25.3 µM (inactive), respectively.

In the case of `CCOc1ccccc1NC(=O)C1=C(C)NC(C)=C(C(=O)Nc2ccccc2OCC)C1c1ccc2c(c1)OCO2`, the GI50 with HT-29 was 37.2 µM (inactive); in the experiment with NCI-H522, 9.89 µM (inactive); in the experiment with 786-0, 41.3 µM (inactive); in the experiment on LOX IMVI, 34 µM (inactive); in the experiment on OVCAR-3, 17 µM (inactive); in the experiment with SF-268, 41.5 µM (inactive). The GI50 in the experiment on RPMI-8226 is 17.4 µM (inactive); in the experiment with A498, 34.9 µM (inactive); in the experiment with IGROV-1 it was 25 µM (inactive); with NCI-H23, 23.9 µM (inactive); in the experiment on SNB-78 it was 24.6 µM (inactive); in the experiment on XF498, 12.8 µM (inactive). The GI50 with SF-295 was 21.2 µM (inactive); with SN12C it was 38.7 µM (inactive); in the experiment on SK-MEL-28, 35.2 µM (inactive).

Turning to `Cc1cccc(NC(=O)CC(=O)N2N=C(N(CCC#N)c3ccc(Cl)cc3)CC2c2ccccc2)c1` (stereo not drawn), the GI50 in the experiment on HT-29, with NCI-H522, in the experiment on UACC-62, in the experiment on 786-0, with LOX IMVI and in the experiment with OVCAR-3 was > 100 µM (inactive) in each case. Also, the GI50 in the experiment on SF-268, in the experiment with HCT-116, with IGROV-1, in the experiment with NCI-H23, in the experiment with SNB-78 and in the experiment on XF498 was > 100 µM (inactive) throughout. The GI50 with SF-295, with SN12C and in the experiment on SK-MEL-28 was > 100 µM (inactive) each time.

For `COC(=O)N1C=CC2=C(C)C3Nc4ccccc4C3C(C)=C2C1` (stereo not drawn), the GI50 with HT-29 was 1.96 µM (inactive); in the experiment with NCI-H522, 1.49 µM (inactive); with UACC-62, 1.72 µM (inactive); in the experiment with 786-0, 0.54 µM (active); in the experiment on LOX IMVI, 2.23 µM (inactive); in the experiment on OVCAR-3, 0.923 µM (active). The GI50 in the experiment with SF-268 was 1.94 µM (inactive); in the experiment on RPMI-8226, 0.804 µM (active); in the experiment with A498 it was 16.2 µM (inactive); with HCT-116, 0.643 µM (active); with IGROV-1 it was 1.47 µM (inactive); with NCI-H23, 4.54 µM (inactive). In addition, the GI50 in the experiment on SNB-78 is 0.546 µM (active); in the experiment on XF498 it was 2.48 µM (inactive); in the experiment on SF-295, 1.64 µM (inactive); in the experiment on SK-MEL-28 it was 7.29 µM (inactive).

For `CN(C)CCNC(=O)c1ccc(Cl)c2c(Nc3ccc(S(=O)(=O)N=C(N)N)cc3)c3ccccc3nc12`, the GI50 with HT-29 was 2.05 µM (inactive); with NCI-H522, 0.603 µM (active); in the experiment with UACC-62 it was 5.42 µM (inactive); with 786-0, 14.3 µM (inactive); in the experiment with LOX IMVI it was 1.75 µM (inactive); in the experiment with OVCAR-3, 12.4 µM (inactive). Further, the GI50 in the experiment on SF-268 was 3.48 µM (inactive); in the experiment on HCT-116, 3.9 µM (inactive); in the experiment with IGROV-1, 3.55 µM (inactive); with NCI-H23 it was 4.68 µM (inactive); in the experiment on SNB-78, 12.1 µM (inactive); in the experiment on XF498, 4.51 µM (inactive). Moreover, the values for the GI50 in the experiment with SF-295, in the experiment on SN12C and in the experiment with SK-MEL-28 were 3.16 µM (inactive), 3.15 µM (inactive) and 11.2 µM (inactive), respectively.

As to `CC1(C)C(=O)N(CCCCCCN2C(=O)C(C)(C)c3ccccc32)c2ccccc21`, the GI50 in the experiment with HT-29 was 19 µM (inactive); in the experiment with UACC-62 it was 22.9 µM (inactive); with 786-0, 18.2 µM (inactive); in the experiment on LOX IMVI, 22 µM (inactive); with OVCAR-3 it was 28 µM (inactive); in the experiment with SF-268, 60.8 µM (inactive). Further, the GI50 was 23 µM (inactive) in the experiment on RPMI-8226; > 100 µM (inactive) in the experiment with A498; 21 µM (inactive) in the experiment on HCT-116; 88.3 µM (inactive) with IGROV-1; 42.6 µM (inactive) in the experiment with NCI-H23; 96.4 µM (inactive) with SNB-78. The GI50 in the experiment on XF498 is 16.5 µM (inactive); in the experiment on SF-295, 44.1 µM (inactive); in the experiment with SN12C, 59.7 µM (inactive); in the experiment on SK-MEL-28 it was 47.2 µM (inactive).

As to `Cn1nc(-c2ccccc2)c(C(=O)/C=C/c2ccc(F)cc2)c(N2CCOCC2)c1=O`, the GI50 in the experiment with HT-29 is 15.9 µM (inactive); in the experiment on NCI-H522, 14.5 µM (inactive); in the experiment on UACC-62, 18.1 µM (inactive); with 786-0, 16 µM (inactive); in the experiment with LOX IMVI, 21.1 µM (inactive); in the experiment with SF-268 it was 19.1 µM (inactive). The GI50 with RPMI-8226 was 4.57 µM (inactive); in the experiment on A498 it was 17.7 µM (inactive); with HCT-116, 4.21 µM (inactive); in the experiment with IGROV-1, 20.3 µM (inactive); in the experiment with NCI-H23, > 10 µM (inactive); in the experiment on XF498, 19.8 µM (inactive). The GI50 was 18.2 µM (inactive) in the experiment with SF-295, 28.3 µM (inactive) with SN12C and 15.8 µM (inactive) with SK-MEL-28.

Regarding `CN1C(=O)CCC2[C@@H]3CC=C4C[C@@H](O)CC[C@]4(C)C3CC[C@@]21C` (stereo partly drawn), the GI50 in the experiment with HT-29 was 36.6 µM (inactive); in the experiment with UACC-62, 62.4 µM (inactive); with 786-0, 94.4 µM (inactive); in the experiment on OVCAR-3 it was 49.5 µM (inactive); in the experiment with RPMI-8226, 20.8 µM (inactive); in the experiment with A498 it was > 100 µM (inactive). In addition, the GI50 in the experiment with HCT-116 was 33.5 µM (inactive); in the experiment with IGROV-1, 96.2 µM (inactive); in the experiment with NCI-H23 it was 25.4 µM (inactive); in the experiment with SNB-78, > 100 µM (inactive); in the experiment on XF498, 45.7 µM (inactive); in the experiment with SF-295 it was 27.2 µM (inactive). In addition, in the experiment with SK-MEL-28, the GI50 is > 100 µM (inactive).

In the case of `O=c1c2c([nH]c3cc4c(cc13)OCO4)-c1ccccc1C2`, the GI50 with HT-29 was 17.7 µM (inactive); with NCI-H522 it was 22.4 µM (inactive); in the experiment with UACC-62, 17.1 µM (inactive); in the experiment with 786-0, 28.1 µM (inactive); with LOX IMVI, 15.6 µM (inactive); in the experiment with OVCAR-3, 22.5 µM (inactive). Besides, the GI50 is 36.2 µM (inactive) in the experiment on SF-268; 15 µM (inactive) in the experiment with RPMI-8226; 15.6 µM (inactive) in the experiment on HCT-116; 17.7 µM (inactive) in the experiment on IGROV-1; 26.1 µM (inactive) with NCI-H23; 30.5 µM (inactive) in the experiment with SNB-78. The GI50 was 24.2 µM (inactive) with XF498, 26.9 µM (inactive) with SF-295, 30.3 µM (inactive) in the experiment on SN12C and 22.6 µM (inactive) in the experiment on SK-MEL-28.

For the origin of these results see ChEMBL document CHEMBL1201862, “PubChem BioAssay data set” (2004).
